Source: patent US12545685B2 (Daiichi Sankyo Company, Limited, priority 2011, dated 2026)

Target: T1, Mdm2/p53 binding (GST-Mdm2 / His-p53) (Homo sapiens, UniProt Q00987, L33E)
T1 construct: Mdm2 partial protein having Mdm2 amino acids at positions 25 to 108
Assay: Mdm2/p53 binding assay (HTRF, His-p53 and GST-Mdm2)
Conditions: His-p53 (aa 1-132) and GST-Mdm2 (aa 25-108, L33E) 6.25 nM each; 25°C, 1 hour; values given as ranges
In short: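 His-p53 (aa 1–132) and GST-Mdm2 (aa 25–108, L33E) were prepared at 6.25 nM each in the protein dilution (20 mM HEPES pH 7.4, 150 mM NaCl, 0.1% BSA). Compound in 10% DMSO buffer and XL665 anti-His/Eu anti-GST antibodies (KF buffer) were added, with 1 h at 25 °C. The 665/620 nm TR-FRET ratio gave T/C and a sigmoid-fitted IC50.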

T1 sequence (Q00987 25-108 L33E): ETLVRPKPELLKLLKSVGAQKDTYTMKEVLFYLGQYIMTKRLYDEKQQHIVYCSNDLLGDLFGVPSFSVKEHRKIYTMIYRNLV

Row | SMILES | IC50 [nM]
1 | CN(C)C(=O)[C@@H]1CC[C@@H](NC(=O)[C@@H]2NC3(CC(CF)(CF)C3)[C@@]3(C(=O)Nc4cc(Cl)ccc43)[C@H]2c2cccc(Cl)c2F)CO1 [Example 124, (3′R, 4′S,5′R)-6″-chloro-4′-(3-chloro-2-fluorophenyl)-N-[(3R,6S)-6-(dimethylcarbamoyl)tetrahydro-2H-pyran-3-yl]-3,3-bis(fluoromethyl)-2″-oxo-1″,2″-dihydrodispiro[cyclobutane-1,2′-pyrrolidine-3′,3″-indole]-5′-carboxamide] | 1 to 50
2 | CCN(C)C(=O)[C@@H]1CC[C@@H](NC(=O)[C@@H]2NC3(CCC(C)(C)CC3)[C@@]3(C(=O)Nc4cc(Cl)ccc43)[C@H]2c2ccnc(Cl)c2F)CO1 [Example 125, (3′R, 4′S,5′R)-6″-chloro-4′-(2-chloro-3-fluoropyridin-4-yl)-N-{(3R,6S)-6-[ethyl(methyl)carbamoyl]tetrahydro-2H-pyran-3-yl}-4,4-dimethyl-2″-oxo-1″,2″-dihydrodispiro[cyclohexane-1,2′-pyrrolidine-3′,3″-indole]-5′-carboxamide] | 1 to 50
3 | CC1(C)CCC2(CC1)N[C@@H](C(=O)N[C@@H]1CC[C@@H](C(=O)NCCF)OC1)[C@H](c1ccnc(Cl)c1F)[C@]21C(=O)Nc2cc(Cl)ccc21 [Example 126, (3′R, 4′S,5′R)-6″-chloro-4′-(2-chloro-3-fluoropyridin-4-yl)-N-{(3R,6S)-6-[{2-fluoroethyl}carbamoyl]tetrahydro-2H-pyran-3-yl}-4,4-dimethyl-2″-oxo-1″,2″-dihydrodispiro[cyclohexane-1,2′-pyrrolidine-3′,3″-indole]-5′-carboxamide] | 1 to 50
4 | COCCN(C)C(=O)[C@@H]1CC[C@@H](NC(=O)[C@@H]2NC3(CCC(C)(C)CC3)[C@@]3(C(=O)Nc4cc(Cl)ccc43)[C@H]2c2ccnc(Cl)c2F)CO1 [Example 127, (3′R, 4′S,5′R)-6″-chloro-4′-(2-chloro-3-fluoropyridin-4-yl)-N-{(3R,6S)-6-[(2-methoxyethyl)(methyl)carbamoyl]tetrahydro-2H-pyran-3-yl}-4,4-dimethyl-2″-oxo-1″,2″=dihydrodispiro[cyclohexane-1,2′-pyrrolidine-3′,3″-indole]-5′-carboxamide] | 1 to 50
5 | COCCNC(=O)[C@@H]1CC[C@@H](NC(=O)[C@@H]2NC3(CCC(C)(C)CC3)[C@@]3(C(=O)Nc4cc(Cl)ccc43)[C@H]2c2ccnc(Cl)c2F)CO1 [Example 128, (3′R, 4′S,5′R)-6″-chloro-4′-(2-chloro-3-fluoropyridin-4-yl)-N-{(3R,6S)-6-[(2-methoxyethyl)carbamoyl]tetrahydro-2H-pyran-3-yl}-4,4-dimethyl-2″-oxo-1″,2″-dihydrodispiro[cyclohexane-1,2′-pyrrolidine-3′,3″-indole]-5′-carboxamide] | 1 to 50
6 | CO[C@@H]1C[C@@H](NC(=O)[C@@H]2NC3(CC(CF)(CF)C3)[C@@]3(C(=O)Nc4cc(Cl)ccc43)[C@H]2c2cccc(Cl)c2F)CO[C@@H]1CO [Example 129, (3′R,4′S,5′R)-6″-chloro-4′-(3-chloro-2-fluorophenyl)-3,3-bis(fluoromethyl)-N-[(3R,5R,6R)-6-(hydroxymethyl)-5-methoxytetrahydro-2H-pyran-3-yl]-2″-oxo-1″,2″-dihydrodispiro[cyclobutane-1,2′-pyrrolidine-3′,3″-indole]-5′-carboxamide] | 1 to 50
7 | CC1(C)CCC2(CC1)N[C@@H](C(=O)N[C@H]1CC[C@H](c3nnc(CO)o3)CC1)[C@H](c1ccnc(Cl)c1F)[C@]21C(=O)Nc2cc(Cl)ccc21 [Example 130, (3′R, 4′S,5′R)-6″-chloro-4′-(2-chloro-3-fluoropyridin-4-yl)-N-{trans-4-[5-(hydroxymethyl)-1,3,4-oxadiazol-2-yl]cyclohexyl}-4,4-dimethyl-2″-oxo-1″,2″-dihydrodispiro[cyclohexane-1,2′-pyrrolidine-3′,3″-indole]-5′-carboxamide] | 1 to 50
8 | O=C(N[C@H]1CC[C@H](c2nnc(CO)o2)CC1)[C@@H]1NC2(CC(CF)(CF)C2)[C@@]2(C(=O)Nc3cc(Cl)ccc32)[C@H]1c1cccc(Cl)c1F [Example 131, (3′R, 4′S,5′R)-6″-chloro-4′-(3-chloro-2-fluorophenyl)-3,3-bis(fluoromethyl)-N-[trans-4-[5-(hydroxymethyl)-1,3,4-oxadiazol-2-yl]cyclohexyl]-2″-oxo-1″,2″-dihydrodispiro[cyclobutane-1,2′-pyrrolidine-3′,3″-indole]-5′-carboxamide] | 50 to 100
9 | C[C@@H](O)c1nnc([C@H]2CC[C@H](NC(=O)[C@@H]3NC4(CCC(C)(C)CC4)[C@@]4(C(=O)Nc5cc(Cl)ccc54)[C@H]3c3ccnc(Cl)c3F)CC2)o1 [Example 132, (3′R, 4′S, S′R)-6″-chloro-4′-(2-chloro-3-fluoropyridin-4-yl)-N-(trans-4-{5-[(1R)-1-hydroxyethyl]-1,3,4-oxadiazol-2-yl}cyclohexyl)-4,4-dimethyl-2″-oxo-1″,2″-dihydrodispiro[cyclohexane-1,2′-pyrrolidine-3′,3″-indole]-5′-carboxamide] | 50 to 100
10 | COC[C@@H]1CC[C@@H](NC(=O)[C@@H]2NC3(CCC(C)(C)CC3)[C@@]3(C(=O)Nc4cc(Cl)ccc43)[C@H]2c2ccnc(Cl)c2F)CO1 [Example 133, (3′R, 4′S,5′R)-6″-chloro-4′-(2-chloro-3-fluoropyridin-4-yl)-N-[(3R,6S)-6-(methoxymethyl)tetrahydro-2H-pyran-3-yl]-4,4-dimethyl-2″-oxo-1″,2″-dihydrodispiro[cyclohexane-1,2′-pyrrolidine-3′,3″-indole]-5′-carboxamide] | 50 to 100
11 | NC(=O)[C@H]1C[C@H](NC(=O)[C@@H]2NC3(CC(CF)(CF)C3)[C@@]3(C(=O)Nc4cc(Cl)ccc43)[C@H]2c2cccc(Cl)c2F)C1 [Example 134, (3′R, 4′S,5′R)—N-(trans-3-carbamoylcyclobutyl)-6″-chloro-4′-(3-chloro-2-fluorophenyl)-3,3-bis(fluoromethyl)-2″-oxo-1″,2″-dihydrodispiro[cyclobutane-1,2′-pyrrolidine-3′,3″-indole]-5′-carboxamide] | 1 to 50
12 | CC(C)(O)[C@@H]1CC[C@@H](NC(=O)[C@@H]2NC3(CC(CF)(CF)C3)[C@@]3(C(=O)Nc4cc(Cl)ccc43)[C@H]2c2cccc(Cl)c2F)CO1 [Example 135, (3′R, 4′S,5′R)-6″-chloro-4′-(3-chloro-2-fluorophenyl)-3,3-bis(fluoromethyl)-N-[(3R,6S)-6-(1-hydroxy-1-methylethyl)tetrahydro-2H-pyran-3-yl]-2″-oxo-1″,2″-dihydrodispiro[cyclobutane-1,2′-pyrrolidine-3′,3″-indole]-5′-carboxamide] | 100 to 500
13 | O=C(N[C@@H]1CC[C@@H](c2nnco2)OC1)[C@@H]1NC2(CC(CF)(CF)C2)[C@@]2(C(=O)Nc3cc(Cl)ccc32)[C@H]1c1cccc(Cl)c1F [Example 136, (3′R, 4′S,5′R)-6″-chloro-4′-(3-chloro-2-fluorophenyl)-3,3-bis(fluoromethyl)-N-[(3R,6S)-6-(1,3,4-oxadiazol-2-yl)tetrahydro-2H-pyran-3-yl]-2″-oxo-1″,2″-dihydrodispiro[cyclobutane-1,2′-pyrrolidine-3′,3″-indole]-5′-carboxamide] | 1 to 50
14 | O=C(NC1CCOCC1)[C@@H]1CC[C@@H](NC(=O)[C@@H]2NC3(CC(CF)(CF)C3)[C@@]3(C(=O)Nc4cc(Cl)ccc43)[C@H]2c2cccc(Cl)c2F)CO1 [Example 137, (3′R, 4′S,5′R)-6″-chloro-4′-(3-chloro-2-fluorophenyl)-3,3-bis(fluoromethyl)-2″-oxo-N-[(3R,6S)-6-(tetrahydro-2H-pyran-4-ylcarbamoyl)tetrahydro-2H-pyran-3-yl]-1″,2″-dihydrodispiro[cyclobutane-1,2′-pyrrolidine-3′,3″-indole]-5′-carboxamide] | 50 to 100
15 | O=C(NCCF)[C@@H]1CC[C@@H](NC(=O)[C@@H]2NC3(CC(CF)(CF)C3)[C@@]3(C(=O)Nc4cc(Cl)ccc43)[C@H]2c2cccc(Cl)c2F)CO1 [Example 138, (3′R, 4′S,5′R)-6″-chloro-4′-(3-chloro-2-fluorophenyl)-N-{(3R,6S)-6-[(2-fluoroethyl)carbamoyl]tetrahydro-2H-pyran-3-yl}-3,3-bis(fluoromethyl)-2″-oxo-1″,2″-dihydrodispiro[cyclobutane-1,2′-pyrrolidine-3′,3″-indole]-5′-carboxamide] | 50 to 100
16 | COCCN(C)C(=O)[C@@H]1CC[C@@H](NC(=O)[C@@H]2NC3(CC(CF)(CF)C3)[C@@]3(C(=O)Nc4cc(Cl)ccc43)[C@H]2c2cccc(Cl)c2F)CO1 [Example 139, (3′R, 4′S,5′R)-6″-chloro-4′-(3-chloro-2-fluorophenyl)-3,3-bis(fluoromethyl)-N-[(3R,6S)-6-[(2-methoxyethyl)(methyl)carbamoyl]tetrahydro-2H-pyran-3-yl]-2″-oxo-1″,2″-dihydrodispiro[cyclobutane-1,2′-pyrrolidine-3′,3″-indole]-5′-carboxamide] | 1 to 50
17 | CN(C)C(=O)[C@@H]1CC[C@@H](NC(=O)[C@@H]2NC3(CCC(C)(C)CC3)[C@@]3(C(=O)Nc4cc(Cl)ccc43)[C@H]2c2ccnc(Cl)n2)CO1 [Example 140, (3′R, 4′R, 5′R)-6″-chloro-4′-(2-chloropyrimidin-4-yl)-N-[(3R,6S)-6-(dimethylcarbamoyl)tetrahydro-2H-pyran-3-yl]-4,4-dimethyl-2″-oxo-1″,2″-dihydrodispiro[cyclohexane-1,2′=pyrrolidine-3′,3″-indole]-5′-carboxamide] | 50 to 100
18 | CCNC(=O)[C@@H]1CC[C@@H](NC(=O)[C@@H]2NC3(CC(CF)(CF)C3)[C@@]3(C(=O)Nc4cc(Cl)ccc43)[C@H]2c2cccc(Cl)c2F)CO1 [Example 141] | 1 to 50
